The text below walks through data of ChEMBL document CHEMBL4342418, “1,2,3-Triazole-containing hybrids as potential anticancer agents: Current developments, action mechanisms and structure-activity relationships” (Eur J Med Chem, 2019).

One assay deals with HCT-116. Put plainly: Antiproliferative activity against human HCT116 cells assessed as reduction in cell viability after 48 hrs by MTT assay. The assay is classed as functional, cell-based. Particulars: HCT-116, 48 h. Background: Formazan colour is commonly taken as a measure of viable cells.
Another assay deals with Caco-2. Nature of the assay: Antiproliferative activity against human Caco2 cells assessed as reduction in cell viability after 48 hrs by MTT assay. The assay is classed as functional, cell-based. As to conditions: Caco-2, 48 h.
Assay [1] deals with MCF7. Nature of the assay: Antiproliferative activity against human MCF7 cells assessed as reduction in cell viability after 48 hrs by MTT assay. Type of assay: functional, cell-based. Particulars: MCF7, 48 h.
The test system of assay [2] is T47D. Put plainly: Antiproliferative activity against human T47D cells assessed as reduction in cell viability after 48 hrs by MTT assay. Type of assay: functional, cell-based.
The test system of the next assay is SUM-159-PT. Nature of the assay: Antiproliferative activity against human SUM159 cells assessed as reduction in cell viability after 72 hrs by MTT assay. The assay is classed as functional, cell-based.
The test system of another assay is SK-BR-3. Put plainly: Antiproliferative activity against human SKBR3 cells assessed as reduction in cell viability after 72 hrs by MTT assay. As to conditions: SK-BR-3, 72 h. Type of assay: functional, cell-based.
A further assay concerns KG-1a. Put plainly: Antiproliferative activity against human KG1a cells assessed as reduction in cell viability after 72 hrs by MTT assay. Type of assay: functional, cell-based.
Another assay concerns PC-3. Put plainly: cells. As to conditions: Homo sapiens, PC-3, 48 h. Type of assay: functional, cell-based.
Assay [3] concerns HT-29. Put plainly: Antiproliferative activity against human HT-29 cells assessed as reduction in cell viability after 48 hrs by MTT assay. Type of assay: functional, cell-based. Particulars: HT-29, 48 h.
For assay [4], the system named is A549. Put plainly: Antiproliferative activity against human A549 cells assessed as reduction in cell viability after 48 hrs by MTT assay. Particulars: A549, 48 h. The assay is classed as functional, cell-based.
Another assay relates to U-87 MG. Nature of the assay: Antiproliferative activity against human U87MG cells assessed as reduction in cell viability after 48 hrs by MTT assay. The assay is classed as functional, cell-based, U-87MG ATCC.
The test system of another assay is C2C12. Put plainly: Cytotoxicity against mouse C2C12 cells assessed as reduction in cell viability after 48 hrs by MTT assay. The assay is classed as cell-based. As to conditions: C2C12, 48 h.
The subject of assay [5] is T47D. Nature of the assay: Antiproliferative activity against human T47D cells assessed as reduction in cell viability after 72 hrs by MTT assay. The assay is classed as functional, cell-based.
For assay [6], the system named is MCF7. Put plainly: Antiproliferative activity against human MCF7 cells assessed as reduction in cell viability after 72 hrs by MTT assay. The assay is classed as functional, cell-based. As to conditions: MCF7, 72 h.
The next assay relates to DU-145. Put plainly: Antiproliferative activity against human DU145 cells by SRB assay. Type of assay: functional, cell-based. For orientation: The SRB assay estimates cell density from bound dye.
For a further assay, the system named is HepG2. Nature of the assay: Antiproliferative activity against human HepG2 cells by SRB assay. The assay is classed as functional, cell-based.
In assay [7] the test system is A549. Nature of the assay: Antiproliferative activity against human A549 cells by SRB assay. The assay is classed as functional, cell-based.
The subject of the next assay is HeLa. Put plainly: Antiproliferative activity against human HeLa cells by SRB assay. The assay is classed as functional, cell-based.
Another assay relates to MDA-MB-231. Nature of the assay: Antiproliferative activity against human MDA-MB-231 cells by SRB assay. The assay is classed as functional.
The subject of a further assay is SW480. Nature of the assay: Antiproliferative activity against human SW480 cells assessed as reduction in cell viability after 48 hrs by MTT assay. Type of assay: functional, cell-based. Particulars: SW480, 48 h.
Assay [8] in a line: Antiproliferative activity against human SMCC7721 cells assessed as reduction in cell viability after 48 hrs by MTT assay. The assay is classed as functional, cell-based.
Assay [9] has as its system HT-29. Nature of the assay: Antiproliferative activity against human HT-29 cells assessed as reduction in cell viability after 72 hrs by MTT assay. Type of assay: functional, cell-based. As to conditions: HT-29, 72 h.

Each structure is given as a SMILES string. ≈ marks a conversion by molar mass, not a printed value.

A word on the IC50: it is the concentration needed to halve the response being measured. In general, GI50 refers to the concentration giving 50% growth inhibition.

Description for PC-3: Antiproliferative activity against human PC3 cells assessed as reduction in cell viability after 48 hrs by MTT assay

Take `O=C(Cn1cc(C(O)(c2ccccc2)c2ccccc2)nn1)N1CCN(c2nc3ccccc3s2)CC1`: the IC50 in the assay on HCT-116, in the assay on Caco-2, in the assay with MCF7 [1] and in the assay with T47D [2] was 33 to 154 µM throughout.
For the compound `O=C(Cn1cc(CCCO)nn1)N1CCN(c2nc3ccccc3s2)CC1`, the 50% inhibitory concentration (IC50) in the assay on HCT-116, in the assay on Caco-2, in the assay on MCF7 [1] and in the assay on T47D [2] was 33 to 48 µM each time.
Take `Fc1cccc(COc2ccc(Nc3ncnc4ccc(-n5cc(CNC6CCN(Cc7cccnc7)CC6)nn5)cc34)cc2Cl)c1`: the IC50 with SUM-159-PT, with SK-BR-3 and in the assay on KG-1a was 2.06 to 7.47 µM in each case.
As to `COc1ccc(-c2nn(-c3ccccc3)cc2C(=O)c2cn(Cc3ccc(OC)c(OC)c3)nn2)cc1`, the half-maximal inhibitory concentration (IC50) in the assay on PC-3, with HT-29 [3], in the assay with A549 [4] and in the assay on U-87 MG was 0.86 to 3.71 µM in each case.
As for `CN(C)CCCOc1cc(C(=O)NCc2cn(-c3ccc(NC(=O)[C@@H]4CCCN4)cc3)nn2)nc(C(=O)NCc2cn(-c3ccc(NC(=O)[C@H]4CCCN4)cc3)nn2)c1`, the IC50 in the assay with HCT-116 is 15.1 µM; in the assay with MCF7 [1], 14.4 µM; in the assay on C2C12 it was greater than 40 µM.
Regarding `O=C(NCc1cn(Cc2ccc(F)cc2)nn1)c1cc(-c2ccccc2)on1`, the GI50 with T47D [5] and with MCF7 [6] was 27.7 to 85.7 µg/mL (≈ 73.4 to 227 µM) each time.
Consider `COc1ccc(/C=C/C(=O)c2cc(OC)c(OC)c(OC)c2)cc1OCc1cn(Cc2ccc(N)cc2)nn1`, for which the GI50 in the assay on DU-145, in the assay with HepG2, in the assay with A549 [7] and in the assay with HeLa was 1.3 to 8.2 µM throughout.
With `CN1CCN(Cc2cn(-c3ccc4ncnc(Nc5ccc(OCc6cccc(F)c6)c(Cl)c5)c4c3)nn2)CC1`, the IC50 with SUM-159-PT, with SK-BR-3 and in the assay with KG-1a was 2.06 to 7.47 µM each time.
For `CCOC(=O)c1cn(CC(=O)N2CCN(c3nc4ccccc4s3)CC2)nn1`, the IC50 in the assay on HCT-116, in the assay with Caco-2, with MCF7 [1] and in the assay on T47D [2] was 33 to 154 µM each time.
Turning to `CCCN1CCC(NCc2cn(-c3ccc4ncnc(Nc5ccc(OCc6cccc(F)c6)c(Cl)c5)c4c3)nn2)CC1`, the IC50 with SUM-159-PT, in the assay on SK-BR-3 and in the assay with KG-1a was 2.06 to 7.47 µM in each case.
Consider `CS(=O)(=O)CCNCc1ccc(-c2ccc3ncnc(Nc4ccc(OCc5cccc(F)c5)c(Cl)c4)c3c2)o1` [LAPATINIB], for which the IC50 with SUM-159-PT, in the assay with SK-BR-3 and with KG-1a was 9.76 to 20.1 µM each time.
For `Cc1ccc(-c2nn(Cc3cn(Cc4ccccc4F)nn3)c(=O)o2)cc1`, the GI50 in the assay with MDA-MB-231, in the assay on DU-145, with HepG2 and with HeLa was 0.82 to 2.39 µM each time.
Consider `COc1cc([C@@H]2c3cc4c(cc3[C@H](n3cc(CO[C@@H]5O[C@H](COC(C)(C)C)[C@@H](OC(C)(C)C)[C@H](OC(C)(C)C)[C@H]5OC(C)(C)C)nn3)[C@H]3COC(=O)[C@H]23)OCO4)cc(OC)c1OC`, for which the IC50 (with MCF7 [1]; in the assay on SW480; with A549 [4]; in assay [8]) was 0.49 to 6.7 µM in each case.
For `CN(C)CCCOc1cc(C(=O)NCc2cn(-c3cccc(NC(=O)[C@@H]4CCCN4)c3)nn2)nc(C(=O)NCc2cn(-c3cccc(NC(=O)[C@H]4CCCN4)c3)nn2)c1`, the results for the IC50 in the assay with HCT-116, with MCF7 [1] and with C2C12 were 1.3 µM, 1.7 µM and greater than 40 µM, respectively.
As to `CNC(=O)c1cc(Oc2ccc(NC(=O)Nc3ccc(Cl)c(C(F)(F)F)c3)cc2)ccn1` [SORAFENIB], the 50% inhibitory concentration (IC50) in the assay with HT-29 [9] is 5.29 µM; in the assay on MCF7 [6], 43.3 µM.
In the case of `COc1ccc(Cn2cc(CNC(=O)c3cc(-c4ccccc4)on3)nn2)cc1`, the GI50 in the assay with T47D [5] and in the assay with MCF7 [6] was 27.7 to 85.7 µg/mL (≈ 71.1 to 220 µM) each time.
As to `O=C(Cn1cc(CO)nn1)N1CCN(c2nc3ccccc3s2)CC1`, the IC50 in the assay on HCT-116, in the assay on Caco-2, with MCF7 [1] and in the assay on T47D [2] was 33 to 154 µM each time.
